Reference: publication PMC11539907, “Cytotoxicity of norstictic acid derivatives, a depsidone from Ramalina anceps Nyl” (Turkish Journal of Chemistry, 2024)
Entries after “also recorded” stand apart in the source; their conditions may differ. Where two headings read alike, the source gives them in different places.

Legend:
[1] = tested on: HT-29 (colon carcinoma) cells; assay: sulforhodamine B (SRB) cytotoxicity assay, HT-29; type: cell-based; conditions: for selectivity index (SI): GI50 on 3T3 cells divided by GI50 on HT-29; for GI50: Homo sapiens, HT-29 cells, SRB assay, read-out: growth inhibition (GI50)
Description: (§1) MCF7 (ATCC HTB-22, breast adenocarcinoma), 786-0 (ATCC CRL-1932, renal cell adenocarcinoma), PC-03 (ATCC CRL-1435, prostatic adenocarcinoma), HT-29 (ATCCHTB-38, colorectal adenocarcinoma), and HEP2 (ATCC CCL-23, laryngeal carcinoma) cells donated by Dr. João Ernesto de Carvalho (CPQBA – UNICAMP), and NIH/3T3 cells (ATCC CRL-1658, mouse embryonic fibroblast), purchased from the Rio de Janeiro Cell Bank, were used for the evaluation of cytotoxic activity. Cell maintenance and treatment were performed as described by Freshney. The sulforhodamine B (SRB) assay was carried out according to Brandão et al. and Bogo et al..
(§2) The selectivity index (SI) measures a compound’s ability to target a neoplastic cell line rather than a normal cell line, indicating its potential for use in clinical trials. In the present study, the SI of each substance was calculated as the quotient of its GI50 value for normal NIH/3T3 cells divided by the GI50 value for a neoplastic cell line. SI values greater than 3.0 were considered significant.

[2] = tested on: PC-03 (prostate carcinoma) cells; assay: sulforhodamine B (SRB) cytotoxicity assay, PC-03; type: cell-based; conditions: for selectivity index (SI): GI50 on 3T3 cells divided by GI50 on PC-03; for GI50: PC-03 cells, SRB assay, read-out: growth inhibition (GI50)
Description: as §1, §2

[3] = tested on: HEP2 (laryngeal carcinoma) cells; assay: sulforhodamine B (SRB) cytotoxicity assay, HEP2; type: cell-based; conditions: for selectivity index (SI): GI50 on 3T3 cells divided by GI50 on HEP2; for GI50: Homo sapiens, HEp-2, HEP2 cells, SRB assay, read-out: growth inhibition (GI50)
Description: as §1, §2

[4] = tested on: NIH/3T3 (mouse embryonic fibroblast) cells; assay: sulforhodamine B (SRB) cytotoxicity assay, NIH/3T3 normal cells; type: cell-based; conditions: for GI50: Mus musculus, NIH3T3, NIH/3T3 normal cells, SRB assay, read-out: growth inhibition (GI50); for effect on normal cells in words: 3T3 cells
Description: as §1, §2

[5] = tested on: MCF7 (breast carcinoma) cells; assay: sulforhodamine B (SRB) cytotoxicity assay, MCF7; type: cell-based; conditions: for selectivity index (SI): GI50 on 3T3 cells divided by GI50 on MCF7; for GI50: Homo sapiens, MCF7 cells, SRB assay, read-out: growth inhibition (GI50)
Description: as §1, §2

[6] = tested on: B16-F10 (murine melanoma) cells; assay: sulforhodamine B (SRB) cytotoxicity assay, B16-F10; type: cell-based; conditions: for GI50: Mus musculus, B16-F10 cells, SRB assay, read-out: growth inhibition (GI50); for selectivity index (SI): GI50 on 3T3 cells divided by GI50 on B16-F10
Description: [Worded in the source for another cell line; this cell line is reported under the same test.] as §1, §2

[7] = tested on: UACC-62 (human melanoma) cells; assay: sulforhodamine B (SRB) cytotoxicity assay, UACC-62; type: cell-based; conditions: for selectivity index (SI): GI50 on 3T3 cells divided by GI50 on UACC-62; for GI50: Homo sapiens, UACC-62 cells, SRB assay, read-out: growth inhibition (GI50)
Description: [Worded in the source for another cell line; this cell line is reported under the same test.] as §1, §2

[8] = tested on: tested tumor cells (786-0, MCF7, HT-29, PC-03, HEP2, B16-F10, UACC-62); assay: sulforhodamine B (SRB) cytotoxicity assay, results stated over several cell lines; type: cell-based; conditions: for cytotoxic activity in words: cell lines as named in the quoted words; for selectivity index (SI), range over all tumor cells: all tested tumor cells vs NIH/3T3
Description: as §1, §2

[9] = tested on: 786-0 (kidney carcinoma) cells; assay: sulforhodamine B (SRB) cytotoxicity assay, 786-0; type: cell-based; conditions: for selectivity index (SI): GI50 on 3T3 cells divided by GI50 on 786-0; for GI50: Homo sapiens, 786-0 cells, SRB assay, read-out: growth inhibition (GI50)
Description: as §1, §2

[10] = all tested tumor cells, read-out: GI50, range over all tumor cells
[11] = listed as 8′-O-isopropyl-norstictic acid

melting point [°C]	Compound	selectivity index (SI) [1]	GI50 [1] [µM]	selectivity index (SI) [2]	GI50 [2] [µM]	selectivity index (SI) [3]	GI50 [3] [µM]	GI50 [4] [µM]	selectivity index (SI) [5]	GI50 [5] [µM]	GI50 [6] [µM]	selectivity index (SI) [7]	GI50 [7] [µM]	cytotoxic activity in words [8]	selectivity index (SI) [9]	GI50 [9] [µM]	selectivity index (SI) [6]	other results
175	CCCCCOC1OC(=O)c2c(O)c(C)c3c(c21)Oc1c(C=O)c(O)cc(C)c1C(=O)O3 (stereo not drawn) [compound 4, 8′-O-n-pentyl-norstictic acid]	1.50	38.2	6.53	8.77	1.19	48.2	57.2	3.69	15.5	55.4	1.51	37.8	low biological activity	0.75	76.2	1.03	
178	CCCCCCOC1OC(=O)c2c(O)c(C)c3c(c21)Oc1c(C=O)c(O)cc(C)c1C(=O)O3 (stereo not drawn) [compound 5, 8′-O-n-hexyl-norstictic acid]	7.66	7.16	7.60	7.23	9.2	5.96	54.9	5.76	9.53	56.3	1.06	51.6	showed activity against MCF7, HT-29, PC-03, and HEP2 cells	1.75	31.4	0.97	GI50 ([8]; MCF7, HT-29, PC-03, and HEP2 cells, read-out: GI50, range): 5.96 to 9.53 µM

The next lines start with the compound.

Compound	melting point [°C]	selectivity index (SI) [1]	GI50 [1] [µM]	selectivity index (SI) [2]	GI50 [2] [µM]	selectivity index (SI) [3]	GI50 [3] [µM]	GI50 [4] [µM]	selectivity index (SI) [5]	GI50 [5] [µM]	GI50 [6] [µM]	selectivity index (SI) [7]	GI50 [7] [µM]	cytotoxic activity in words [8]	selectivity index (SI) [9]	GI50 [9] [µM]	selectivity index (SI) [6]	other results
CCCOC1OC(=O)c2c(O)c(C)c3c(c21)Oc1c(C=O)c(O)cc(C)c1C(=O)O3 (stereo not drawn) [compound 2, 8′-O-n-propyl-norstictic acid]	183	0.13	470	2.03	30	0.94	70	63	0.15	410	> 600	1.2	50	did not show activity against the tested tumor cells; also recorded: comparatively low activity against the cancerous cell lines	0.43	140		selectivity index (SI) ([2]; listed as n-propyl): 33.8; GI50 ([2]; listed as n-propyl): 1.28 µM
CCCCOC1OC(=O)c2c(O)c(C)c3c(c21)Oc1c(C=O)c(O)cc(C)c1C(=O)O3 (stereo not drawn) [compound 3, 8′-O-n-butyl-norstictic acid]	169	16.34	38.3	98.11	6.37	78.77	7.94	625	47.15	13.3	45	54.1	11.5		22.21	28.2	13.88	effect on normal cells in words [4]: lowest effect on 3T3 cells; selectivity index (SI), range over all tumor cells [8]: 13.88–98.11; GI50 [8, 10]: 6.37 to 45 µM
Cc1cc(O)c(C=O)c2c1C(=O)Oc1c(C)c(O)c3c(c1O2)C(OC(C)C)OC3=O (stereo not drawn) [compound 6, 8′-O-isopropyl-norstictic acid]	185	0.86	50.2	33.8	1.28	5.56	7.78	43.2	0.73	59.3	9.65	7.0	6.2	active against PC-03, HEP2, B16-F10, and UACC-62 cells	0.86	50.1	4.48	selectivity index (SI) [3, 11]: 5.5; selectivity index (SI) [6, 11]: 4.5; selectivity index (SI), range ([8]; PC-03, HEP2, B16-F10, and UACC-62 cells vs NIH/3T3): 4.48 to 33.8; GI50 ([8]; PC-03, HEP2, B16-F10, and UACC-62 cells, read-out: GI50, range): 1.28 to 9.65 µM
CCC(C)OC1OC(=O)c2c(O)c(C)c3c(c21)Oc1c(C=O)c(O)cc(C)c1C(=O)O3 (stereo not drawn) [compound 7, 8′-O-sec-butyl-norstictic acid]	170	48.3	12.3	11.30	52.4	78.0	7.6	594	87.4	6.8	9.2	20.2	29.4		27.78	21.4	64.4	effect on normal cells in words [4]: lowest effect on 3T3 cells; selectivity index (SI), range over all tumor cells [8]: 11.30–87.40; GI50 [8, 10]: 6.8 to 52.4 µM
Cc1cc(O)c(C=O)c2c1C(=O)Oc1c(C)c(O)c3c(c1O2)C(OC(C)(C)C)OC3=O (stereo not drawn) [compound 8, 8′-O-tert-butyl-norstictic acid]	196	0.28	139	5.0	7.6	0.66	57.8	38.5	0.6	64.2	90.3	0.57	67.1	active only against PC-03 cells; also recorded: low biological activity	0.6	63.3	0.42	
